{
  "source": "patent US20260275317A1",
  "about": "“CHIMERIC ENDOLYSINS WITH ACTIVITY AGAINST STREPTOCOCCI AND STAPHYLOCOCCI” (UNIVERSITEIT GENT, priority 2023, published 2026)",
  "key": {"[1]": {"system": "S. uberis in mastitic raw cow's milk", "assay": "Challenge of mastitic raw cow's milk", "assay_type": "cell-based, Streptococcus uberis", "settings": "milk of 4 cows, 8 h; 0.5 μM NC5, 50 μg/mL cloxacillin or both", "method": "Raw cow's milk from S. uberis infected dairy cows was supplied by the milk control center of Flanders (MCC Vlaanderen). Upon arrival, the milk was serially diluted and plated on BHI agar to determine the bacterial load. Only milk with >10^5 […] CFU/mL S. uberis was included as a selection criterium. If needed, the raw milk was incubated during 8 h at 37° C. to artificially increase the initial bacterial load. […] Upon incubation at 37° C., every 2 h, 20 μL was transferred from each well to 180 μL dPBS, serially diluted and plated on BHI agar. Plates were incubated overnight and CFU/mL were calculated the next day. Undiluted, mastitic milk was always pipetted with ClipTip Pipette Tips (Westburg, The Netherlands) due to high viscosity. Mastitis isolates were confirmed as S. uberis by MALDI-TOF MS biotyping."}, "[2]": {"system": "S. uberis-infected murine mammary glands", "assay": "Mouse model of S. uberis mastitis: Ly6G immunohistochemistry (neutrophil influx)", "assay_type": "in vivo", "settings": "30 μg cloxacillin stand-alone", "source_text": "(§1) All experimental procedures on mice were executed at the Faculty of Veterinary Medicine of Ghent University (Merelbeke, Belgium). Breeding pairs of female and male CD-1 mice (Envigo, The Netherlands) were allowed to mate during two weeks, after which the dams gave birth approximately seven days later. Twelve days postpartum, the lactating dams were intraductally inoculated with a blunted 32 gauge pediatric needle in the fourth inguinal mammary gland pair after properly disinfecting the teat. These intraductal inoculations were always performed under general gas anesthesia, using a mixture of medical oxygen and isoflurane at 2.5-3.0% for induction and 1.5-2.0% for maintenance. The long-acting analgesic buprenorphine was administered at 10 μg/kg intraperitoneally for post-surgical pain relief. An inoculum dose of approximately […] colony forming units (CFU) of a clinical bovine mastitis S. uberis isolate in 100 μl dPBS was intraductally inoculated at 1 h post-weaning and mice were grouped ad random at 12 h post-infection (p.i.) and placed under gas anesthesia a second time to administer intramammary treatment. […] The treated mice were sedated 16 h p.i. (i.e., 4 h post-treatment). The therapeutics were diluted in dPBS to their desired concentration, mixed by pipetting and kept on melting ice until they were administered intraductally within 1 h after preparation. […]"}, "[3]": {"system": "S. uberis-infected murine mammary glands", "assay": "Mouse model of S. uberis mastitis: bacterial load and clinical symptoms", "assay_type": "in vivo", "settings": "30 μg cloxacillin stand-alone", "source_text": "as §1"}, "[4]": {"system": "S. uberis-infected murine mammary glands", "assay": "Mouse model of S. uberis mastitis: inflammatory protein profiling in mammary gland lysates", "assay_type": "in vivo", "settings": "30 μg cloxacillin stand-alone", "source_text": "All experimental procedures on mice were executed at the Faculty of Veterinary Medicine of Ghent University (Merelbeke, Belgium). Breeding pairs of female and male CD-1 mice (Envigo, The Netherlands) were allowed to mate during two weeks, after which the dams gave birth approximately seven days later. Twelve days postpartum, the lactating dams were intraductally inoculated with a blunted 32 gauge pediatric needle in the fourth inguinal mammary gland pair after properly disinfecting the teat. These intraductal inoculations were always performed under general gas anesthesia, using a mixture of medical oxygen and isoflurane at 2.5-3.0% for induction and 1.5-2.0% for maintenance. The long-acting analgesic buprenorphine was administered at 10 μg/kg intraperitoneally for post-surgical pain relief. An inoculum dose of approximately […] colony forming units (CFU) of a clinical bovine mastitis S. uberis isolate in 100 μl dPBS was intraductally inoculated at 1 h post-weaning and mice were grouped ad random at 12 h post-infection (p.i.) and placed under gas anesthesia a second time to administer intramammary treatment. […] The treated mice were sedated 16 h p.i. (i.e., 4 h post-treatment). The therapeutics were diluted in dPBS to their desired concentration, mixed by pipetting and kept on melting ice until they were administered intraductally within 1 h after preparation. Inoculum preparation was done by growing S. uberis to stationary phase in brain heart infusion (BHI), after which cells were washed with dPBS and diluted in dPBS to the desired concentration based on OD600 measurements.\nThe host response to the experimental mammary gland infection and subsequent therapy was investigated by determining the levels of inflammatory cytokines and chemokines in mammary gland lysates, obtained by mixing the homogenates with 300 μL caspase lysis buffer (CLB) containing protease inhibitors, and subsequent centrifugation (12,000 g; 4° C.; 20 min). Protein concentration of these lysates was determined using the Bradford protein assay. Standardization of the mammary gland lysates was done by dilution in CLB to assure equal protein concentrations. Levels of the selected inflammatory mediators TNF-α, MCP-1, M-& G-CSF as well as IL-1α, -1β, -6, & -8, were determined on mammary gland lysates using a ProcartaPlex Immunoassay. Quantification of CHI3L1 and LCN2 was performed by ELISA."}},
  "data": [
    {"molecule": "Cc1onc(-c2ccccc2Cl)c1C(=O)N[C@@H]1C(=O)N2[C@@H]1SC(C)(C)[C@@H]2C(=O)O", "note": "[cloxacillin]", "values": [
      {"measurement": "log10 reduction of S. uberis versus PBS control", "setting": "[1]", "result": "significant (p<0.05) reductions in all 4 mastitic milk samples at 8 h"},
      {"measurement": "reduced neutrophil influx (Ly6G-positive staining) versus placebo", "setting": "[2]", "result": 1.8, "unit": "fold"},
      {"measurement": "decrease in CFU numbers versus placebo", "setting": "[3]", "result": 630, "unit": "fold"},
      {"measurement": "decrease of bacterial load versus placebo", "setting": "[3]; intramammary, 4 h post-treatment, all mice", "result": 55, "unit": "fold"},
      {"measurement": "CHI3L1 reduction versus placebo", "setting": "[4]", "result": 1.4, "unit": "fold"},
      {"measurement": "IL-1α decrease versus placebo", "setting": "[4]", "result": 1.2, "unit": "fold"},
      {"measurement": "IL-1β decrease versus placebo", "setting": "[4]", "result": 1.3, "unit": "fold"},
      {"measurement": "IL-6 decrease versus placebo", "setting": "[4]", "result": 2.0, "unit": "fold"},
      {"measurement": "LCN2 reduction versus placebo", "setting": "[4]", "result": 1.2, "unit": "fold"},
      {"measurement": "MCP-1 reduction versus placebo", "setting": "[4]", "result": 1.5, "unit": "fold"},
      {"measurement": "MIP-2 decrease versus placebo", "setting": "[4]", "result": 1.6, "unit": "fold"},
      {"measurement": "TNF-α decrease versus placebo", "setting": "[4]", "result": 1.4, "unit": "fold"}
    ]}
  ]
}
